Test systems include PC-3 prostate; T-47D breast; MCF7 breast; NCI/ADR-RES ovarian; MDA-N.
Experiment in all cases: NCI-60 cell line screen, 48 h

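96-well plates; 48 h exposure; 5 concentrations. Endpoints by linear interpolation between flanking doses. Not reached: highest tested concentration assigned. Here, GI50 denotes the concentration required for 50% inhibition of growth. TGI is the concentration that stops growth completely.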

In the case of `O=C1Nc2c(ccc(Cl)c2Cl)/C1=C\c1cc(C(F)(F)F)cc(C(F)(F)F)c1`, the GI50 was 1.1 µM with PC-3 prostate, 2.5 µM in the assay with T-47D breast, 0.848 µM with MCF7 breast and 6.38 µM with NCI/ADR-RES ovarian. In addition, the TGI is 4.51 µM in the assay with PC-3 prostate, 10.2 µM with T-47D breast, 5.64 µM in the assay on MCF7 breast and 14.8 µM in the assay on NCI/ADR-RES ovarian.
`O=C(Nc1nc(-c2ccccc2Cl)cs1)c1cc(-c2ccc(Cl)cc2)nc2ccc(Cl)cc12`: the GI50 is 3.25 µM in the assay with PC-3 prostate, 22.5 µM with T-47D breast, 0.678 µM in the assay with MCF7 breast and 1.73 µM with NCI/ADR-RES ovarian. Moreover, the TGI is 34.5 µM in the assay on PC-3 prostate, above 100 µM in the assay on T-47D breast, above 100 µM with MCF7 breast and above 100 µM in the assay with NCI/ADR-RES ovarian.
In the case of `COc1cc(/C=C2\CC3C4CCC5=CC(=O)CC[C@]5(C)C4CC[C@]3(C)C2=O)ccc1OCCN1CCCCC1` (some centres undefined), the GI50 is 2.33 µM in the assay with PC-3 prostate, 11.3 µM in the assay with T-47D breast, 3.35 µM in the assay with MCF7 breast and 4.62 µM with NCI/ADR-RES ovarian. The TGI was 12.8 µM in the assay with PC-3 prostate, 41.9 µM in the assay with T-47D breast, 8.55 µM in the assay on MCF7 breast and above 100 µM with NCI/ADR-RES ovarian.
For `COc1c(OC)c(OC)c(-c2cc(=O)c3c(OC)c(OC)c(OC)c(OC)c3o2)c(OC)c1OC`, the TGI in the assay on MDA-N is above 100 µM; with T-47D breast, 47.9 µM; in the assay with NCI/ADR-RES ovarian, 78.9 µM.
Regarding `CC(C)(N)C(=O)N[C@@H]1C(=O)N2[C@@H]1SC(C)(C)[C@@H]2C(=O)O`, the TGI with MDA-N, with PC-3 prostate, in the assay with T-47D breast, in the assay with MCF7 breast and in the assay on NCI/ADR-RES ovarian was above 100 µM throughout.
As for `COc1ccc(Nc2ncccc2C(=O)NCc2cn(Cc3cccc(Oc4ccccc4)c3)nn2)c(OC)c1`, the GI50 is 1.36 µM with PC-3 prostate, 39.4 µM with T-47D breast, 0.653 µM in the assay on MCF7 breast and 2.12 µM with NCI/ADR-RES ovarian. Moreover, the TGI in the assay on PC-3 prostate is above 100 µM; with T-47D breast, above 100 µM; in the assay on MCF7 breast, above 100 µM; with NCI/ADR-RES ovarian, 35.5 µM.
Consider `CCC1OC(=O)CC(O)C(C)C(OC2OC(C)CC(N(C)C)C2O)C(CC=O)CC(C)C(=O)/C=C/C2(C)OC2C1C` (centres undefined), for which the TGI in the assay on MDA-N is above 100 µM; in the assay on PC-3 prostate, above 100 µM; with T-47D breast it was 48.6 µM; in the assay with MCF7 breast, 25 µM; in the assay with NCI/ADR-RES ovarian, 86.7 µM.
Consider `O=C(O)C1C2CCC(O2)C1C(=O)NCc1cccnc1` (centres undefined), for which the TGI with MDA-N, with PC-3 prostate, in the assay with T-47D breast, in the assay with MCF7 breast and with NCI/ADR-RES ovarian was above 100 µM each time.
As for `CCN(CC)CCNC(=O)C(Cl)=C1C(Cl)=C(Cl)C(Cl)=C1Cl`, the GI50 with PC-3 prostate was 4.23 µM; with T-47D breast, 4.19 µM; in the assay on MCF7 breast, 2.8 µM; with NCI/ADR-RES ovarian, 2.98 µM. Moreover, the TGI is 41.3 µM in the assay with PC-3 prostate, 45.6 µM in the assay on T-47D breast, 13.5 µM with MCF7 breast and above 100 µM in the assay with NCI/ADR-RES ovarian.
As for `Cc1nc2cc(Nc3nc(Nc4ccc(F)cc4)nc(N4CCCC4)n3)ccc2n1Cc1ccccc1`, the GI50 was 1.77 µM in the assay on PC-3 prostate, 2.18 µM with T-47D breast, 2.22 µM in the assay on MCF7 breast and 1.96 µM in the assay on NCI/ADR-RES ovarian. For the same molecule, the TGI in the assay on PC-3 prostate is 4.29 µM; with T-47D breast, 4.94 µM; in the assay with MCF7 breast, 7.44 µM; with NCI/ADR-RES ovarian, 3.94 µM.
Take `COC1/C=C/OC2(C)Oc3c(C)c(O)c4c(O)c(c(C=NOC(c5ccccc5)c5ccccc5)c(O)c4c3C2=O)NC(=O)/C(C)=C/C=C/C(C)C(O)C(C)C(O)C(C)C(OC(C)=O)C1C` (centres undefined): the GI50 with PC-3 prostate is 1.34 µM; in the assay on T-47D breast it was 1.87 µM; with MCF7 breast, 1.31 µM; in the assay with NCI/ADR-RES ovarian, 1.67 µM. For the same molecule, the TGI with PC-3 prostate stood at 4.15 µM; in the assay with T-47D breast, 6.71 µM; with MCF7 breast, 3.81 µM; in the assay on NCI/ADR-RES ovarian, 6.19 µM.
`Nc1nc(Cl)nc2c1ncn2C1OC(CO)C(O)C1O` (centres undefined): the GI50 with PC-3 prostate is above 100 µM; in the assay on T-47D breast, above 100 µM; with MCF7 breast, 1.66 µM; with NCI/ADR-RES ovarian it was 0.579 µM. Also, the TGI in the assay with PC-3 prostate, with T-47D breast, in the assay with MCF7 breast and in the assay with NCI/ADR-RES ovarian was above 100 µM throughout.
As for `O=C(Nc1ccc(Cl)cc1)c1cc2ccccc2cc1OP(=O)(O)O`, the GI50 with PC-3 prostate is 2.92 µM; with T-47D breast, 3.98 µM; in the assay with MCF7 breast it was 5.52 µM; in the assay on NCI/ADR-RES ovarian, 3.51 µM. In addition, the TGI is above 100 µM in the assay on PC-3 prostate, 35.2 µM in the assay with T-47D breast, 40.9 µM in the assay with MCF7 breast and above 100 µM in the assay on NCI/ADR-RES ovarian.
Consider `CC/C(=C(/CC)c1ccc(O)cc1)c1ccc(O)cc1`, for which the GI50 in the assay on PC-3 prostate is 5.75 µM; in the assay on T-47D breast it was 6.85 µM; in the assay on MCF7 breast, 5.78 µM; with NCI/ADR-RES ovarian, 3.09 µM. Further, the TGI with PC-3 prostate came to 50.9 µM; in the assay on T-47D breast, 47 µM; in the assay on MCF7 breast it was 19.3 µM; with NCI/ADR-RES ovarian it was 20.2 µM.
With `O=C(c1ccccc1)c1c2n(c3c1cc(O)c1ccccc13)CCN2`, the GI50 in the assay with PC-3 prostate is 2.69 µM; with T-47D breast, 1.77 µM; in the assay with MCF7 breast, 1.97 µM; with NCI/ADR-RES ovarian, 23.5 µM. Besides, the TGI in the assay on PC-3 prostate was 13 µM; with T-47D breast, 3.99 µM; with MCF7 breast it was 3.87 µM; in the assay on NCI/ADR-RES ovarian, above 100 µM.
Turning to `COC(=O)[C@H](C)[C@@H]1CC[C@](C)(CCC2=C(C)CCCC2(C)C)OO1`, the TGI with MDA-N, in the assay on PC-3 prostate, with T-47D breast, in the assay with MCF7 breast and in the assay with NCI/ADR-RES ovarian was above 25 µM in each case.
Take `NNc1ncnc2cccc(Cl)c12`: the TGI in the assay on MDA-N, with PC-3 prostate, in the assay on T-47D breast, in the assay on MCF7 breast and in the assay with NCI/ADR-RES ovarian was above 100 µM each time.
`Cn1cc(-c2ccc3nnc(C(F)(F)c4ccc5ncccc5c4)n3n2)cn1`: the GI50 in the assay with PC-3 prostate was 85 µM; in the assay with T-47D breast, 40.8 µM; in the assay on MCF7 breast, 69.4 µM; in the assay on NCI/ADR-RES ovarian, 62.2 µM. The TGI with PC-3 prostate, in the assay with T-47D breast, in the assay with MCF7 breast and in the assay on NCI/ADR-RES ovarian was above 100 µM each time.

The record behind these values is PubChem BioAssay (NCI).
